Measurements taken from US6914045B2, “Glycopeptide antibiotics” (Wyeth Holdings Corporation, priority 2001, dated 2005).
Converted amounts (≈) assume the structure as drawn.

Legend:
[1] = test system: Enterococcus faecalis (GC 2246); test: acute lethal infection in mice; assay type: in vivo; conditions: female CD-1 mice, intraperitoneal challenge, intravenous 30 min. after infection, 7 day survival
Method in brief: (§1)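 Intraperitoneal challenge of female CD-1 mice with a bacterial dose lethal to untreated animals within 24-48 hr; single iv treatment 30 min later, 5 mice per dose level. Survival is scored at day 7 and pooled from three experiments to give the median effective dose.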

[2] = test system: Staphylococcus aureus-SMITH (GC 4543); test: acute lethal infection in mice; assay type: in vivo; conditions: acute lethal infection, female CD-1 mice, intraperitoneal challenge, intravenous 30 min. after infection, 7 day survival
Method in brief: as §1

Escherichia coli = test: in vitro antibacterial evaluation, MIC by broth dilution; assay type: cell-based; conditions: 18 hours at 35° C.
Method in brief: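 Broth dilution in Muller-Hinton II medium per NCCLS standard M7-A2, with an inoculum of 5×10^5 CFU/mL and antibiotic tested over 64-0.06 μg/mL. MIC was taken as the lowest concentration inhibiting visible growth.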

Staphylococcus sp. = test: as above; assay type: cell-based; conditions: broth dilution, 18 hours at 35° C.
Method in brief: (§2)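 Inoculum 5×10^5 CFU/mL; concentrations 64 to 0.06 μg/mL; MIC defined as lowest inhibitory level. Conducted by broth dilution under NCCLS guidelines.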

Enterococcus sp. = test: as above; assay type: cell-based; conditions: broth dilution, 18 hours at 35° C.
Method in brief: as §2

Streptococcus sp. = test: as above; assay type: cell-based; conditions: broth dilution, 18 hours at 35° C.
Method in brief: as §2

## CC(c1ccccc1)C1NC(=O)CNC(=O)C(CO)NC(=O)C(C(O)C2CNC(=N)N2C2OC(CO)C(O)C(O)C2O)NC(=O)C(C(O)C2CNC(=N)N2)NC(=O)C(Cc2ccc(OC3OC(CO)C(OC4OC(COC(=O)C(c5ccccc5)c5ccccc5)C(O)C(O)C4O)C(O)C3O)cc2)NC1=O (stereo not drawn) [Example 96c, Cyclo[glycyl-β-methylphenylalanyl-O-[4-O-[6-O-(diphenylacetyl)hexolpyranosyl]hexopyranosyl]tyrosyl-3-(2-iminoimidazolidin-4-yl)seryl-3-(3-hexopyranosyl-2-iminoimidazolidin-4-yl)serylseryl]]
[1]
  median effective dose (ED50), Enterococcus faecalis (GC 2246): 5.2 mg/kg
[2]
  median effective dose (ED50), Staphylococcus aureus-SMITH (GC 4543): 0.29 mg/kg
Escherichia coli
  MIC Escherichia coli (ATCC 25922): 64 µg/mL (≈ 43 µM)
Staphylococcus sp.
  MIC Coagulase Negative Staphylococcus (GC 4547): 1 µg/mL (≈ 0.671 µM)
  MIC Coagulase Negative Staphylococcus (GC 4548): 0.25 µg/mL (≈ 0.168 µM)
  MIC Coagulase Negative Staphylococcus (GC 4549): 1 µg/mL (≈ 0.671 µM)
  MIC Coagulase Negative Staphylococcus (GC 4551): 1 µg/mL (≈ 0.671 µM)
  MIC Coagulase Negative Staphylococcus (ID-3941): 0.5 µg/mL (≈ 0.336 µM)
  MIC Staphylococcus aureus-SMITH (GC 4543): 0.5 µg/mL (≈ 0.336 µM)
  MIC Staphylococcus haemolyticus (GC 4546): 0.5 µg/mL (≈ 0.336 µM)
Staphylococcus sp.; strain ATCC 29213
  MIC Staphylococcus aureus (ATCC 29213): 1 µg/mL (≈ 0.671 µM)
Staphylococcus sp.; strain GC 1131
  MIC Staphylococcus aureus (GC 1131): 0.5 µg/mL (≈ 0.336 µM)
Staphylococcus sp.; strain GC 4541
  MIC Staphylococcus aureus (GC 4541): 0.5 µg/mL (≈ 0.336 µM)
Staphylococcus sp.; strain GC 4542
  MIC Staphylococcus aureus (GC 4542): 1 µg/mL (≈ 0.671 µM)
Staphylococcus sp.; strain GC 4543
  MIC Staphylococcus aureus-SMITH (GC 4543): 0.5 µg/mL (≈ 0.336 µM)
Staphylococcus sp.; strain GC 4544
  MIC Staphylococcus aureus (GC 4544): 1 µg/mL (≈ 0.671 µM)
Staphylococcus sp.; strain GC 4545
  MIC Staphylococcus aureus (GC 4545): 0.5 µg/mL (≈ 0.336 µM)
Staphylococcus sp.; strain GC 4546
  MIC Staphylococcus haemolyticus (GC 4546): 0.5 µg/mL (≈ 0.336 µM)
Staphylococcus sp.; strain GC 4547
  MIC Coagulase Negative Staphylococcus (GC 4547): 1 µg/mL (≈ 0.671 µM)
Staphylococcus sp.; strain GC 4548
  MIC Coagulase Negative Staphylococcus (GC 4548): 0.25 µg/mL (≈ 0.168 µM)
Staphylococcus sp.; strain GC 4549
  MIC Coagulase Negative Staphylococcus (GC 4549): 1 µg/mL (≈ 0.671 µM)
Staphylococcus sp.; strain GC 4551
  MIC Coagulase Negative Staphylococcus (GC 4551): 1 µg/mL (≈ 0.671 µM)
Staphylococcus sp.; strain ID-3941
  MIC Coagulase Negative Staphylococcus (ID-3941): 0.5 µg/mL (≈ 0.336 µM)
Enterococcus sp.; Enterococcus avium (GC 4558)
  MIC Enterococcus avium (GC 4558): 2 µg/mL (≈ 1.34 µM)
Enterococcus sp.; Enterococcus faecalis (ATCC 29212)
  MIC Enterococcus faecalis (ATCC 29212): 2 µg/mL (≈ 1.34 µM)
Enterococcus sp.; Enterococcus faecalis (GC 4552)
  MIC Enterococcus faecalis (GC 4552): 2 µg/mL (≈ 1.34 µM)
Enterococcus sp.; Enterococcus faecalis (GC 4553)
  MIC Enterococcus faecalis (GC 4553): 2 µg/mL (≈ 1.34 µM)
Enterococcus sp.; Enterococcus faecalis (GC 4554)
  MIC Enterococcus faecalis (GC 4554): 2 µg/mL (≈ 1.34 µM)
Enterococcus sp.; Enterococcus faecium (GC 2243)
  MIC Enterococcus faecium (GC 2243): 2 µg/mL (≈ 1.34 µM)
Enterococcus sp.; Enterococcus faecium (GC 4556)
  MIC Enterococcus faecium (GC 4556): 2 µg/mL (≈ 1.34 µM)
Enterococcus sp.; Enterococcus faecium (GC 4557)
  MIC Enterococcus faecium (GC 4557): 1 µg/mL (≈ 0.671 µM)
Enterococcus sp.
  MIC Enterococcus avium (GC 4558): 2 µg/mL (≈ 1.34 µM)
  MIC Enterococcus faecalis (ATCC 29212): 2 µg/mL (≈ 1.34 µM)
  MIC Enterococcus faecalis (GC 2242): 1 µg/mL (≈ 0.671 µM)
  MIC Enterococcus faecalis (GC 4552): 2 µg/mL (≈ 1.34 µM)
  MIC Enterococcus faecalis (GC 4553): 2 µg/mL (≈ 1.34 µM)
  MIC Enterococcus faecalis (GC 4554): 2 µg/mL (≈ 1.34 µM)
  MIC Enterococcus faecium (GC 2243): 2 µg/mL (≈ 1.34 µM)
  MIC Enterococcus faecium (GC 4556): 2 µg/mL (≈ 1.34 µM)
  MIC Enterococcus faecium (GC 4557): 1 µg/mL (≈ 0.671 µM)
Enterococcus sp.; strain GC 2242
  MIC Enterococcus faecalis (GC 2242): 1 µg/mL (≈ 0.671 µM)
Streptococcus sp.
  MIC Streptococcus agalactiae (GC 4564): <0.06 µg/mL
  MIC Streptococcus pneumoniae (GC 4565): <0.06 µg/mL
  MIC Streptococcus pyogenes (ID-3187): <0.06 µg/mL
Streptococcus sp.; strain GC 4564
  MIC Streptococcus agalactiae (GC 4564): <0.06 µg/mL
Streptococcus sp.; strain GC 4565
  MIC Streptococcus pneumoniae (GC 4565): <0.06 µg/mL
Streptococcus sp.; strain ID-3187
  MIC Streptococcus pyogenes (ID-3187): <0.06 µg/mL
